Reference: US20200377568A1, “Novel IL-4-/IL-13-derived peptide compounds for the treatment or prevention of neurodegenerative or neuroinflammatory diseases” (Universitätsmedizin der Johannes Gutenberg-Universität Mainz, priority 2018, published 2020)
“Also recorded” adds a separate entry of the source. Peptide text beside a SMILES is read from it.

Assays:
[1] = test system: CD11b+ bone marrow-derived macrophages (BMDMs); assay: Differentiation of bone marrow-derived macrophages; format: cell-based, mouse; settings: different concentrations, FIG. 4A
Method: (§1) A-B: Effects of incubation with IL-4 and different concentrations of Link4 and Link13 on the differentiation of A: CD11b^+ bone marrow-derived macrophages (BMDMs) into F80^+CD206^+ cells, and B: CD4^+ T cells into Gata3^+ cells. C-D: FACS results for different populations of T cells and CD11b^+MHCII^+ monocytes/macrophages/microglia of immune cells isolated from C: spleen and D: central nervous system (CNS) of EAE mice treated with PBS, IL-4 or Link4.
(§2) In order to investigate whether Link4 and Link13 are able to modulate immune cells, in vitro assays were performed on bone marrow-derived macrophages (BDMBs) and on naïve T cells.
Murine BMDMs were isolated from adult C57BL/6 mice. The tibia and femur bones were flushed with sterile PBS and the bone marrow was collected in washing medium. After filtering the cell suspension trough a 100 μm nylon mesh, the cells were centrifuged (5 min, 550 g, 4° C.) and resuspended in mouse medium (10% FCS, 1% P/S, 1% L-glutamine, 0.1% β-mercaptoethanol, 1% HEPES in RPMI buffer). For the in vitro generation of BMDMs cells were plated in 6 well-plates and exposed to 20 ng/ml Macrophage […] (M-CSF) for 4 days. For the activation of the cells, Dexametason (5×10^−7M), LPS (10 μg/ml) and IL-4 (10 ng/ml) were added to the culture for the following 3 days.

[2] = cited from earlier work
[3] = test system: CD4+ T cells; assay: TH2 differentiation of naive T cells; format: cell-based, mouse; settings: different concentrations, FIG. 4B
Method: as §1, §2
For the isolation of T lymphocytes 5-8 week old C57BL/6 mice were sacrificed by cervical dislocation and the spleens and lymph nodes (LN) were isolated and rubbed trough a 100 μm cell strainer into a 50 ml tube with washing medium (5% FCS, 1% P/S,1% HEPES in PBS). After washing, the cells were centrifuged for 5 min at 550 g at 4° C. To remove the red blood cells the […] was re-suspended in lysis buffer followed by centrifugation (5 min, 550 g, 4° C.). The cells were resuspended in MACS buffer and magnetic lymphocyte sorting was performed on ice, using the MidiMACS and QuadroMACS Seperators. A CD4 untouched and CD8 touched cell sort was performed a washing step in ml MACS buffer (5 min, 550 g, 4° C.). Cells were incubated with CD4 T cell biotin antibody cocktail (Miltenyi Biotec) in MACS buffer for 5 min at 4° C. Subsequently, anti-biotin microbeads and CD8 microbeads in MACS buffer was added. CD8 microbeads were added to reduce the possible contamination of CD8^+ lymphocytes. After 10 min of incubation at 4° C. the cells were washed again and resuspended in MACS buffer. MACS columns were pre equilibrated and topped with pre-separation filters (30 μm). A maximum of 300×10^6 cells were added to each column followed by 3 consecutive washing steps with MACS buffer. […] The purity of the magnetic cells sorts was assessed by comparing pre- and post-sort samples by flow cytometry. […]

[4] = test system: experimental autoimmune encephalomyelitis (EAE) mice; assay: EAE clinical score, treatment during the chronic phase; format: in vivo, mouse; settings: chronic phase of EAE, vs PBS
Method: To test whether Link4 has similar effects to IL-4 in vivo, two pilot experiments were performed. In the first experiment (FIG. 3A), B16 mice were subjected to EAE and treated with IL-4, Link4, Ph8 and PBS (n=6-7 animals per group) via lumbar intrathecal injection directly into the cerebrospinal fluid (CSF) every other day for 14 days, in the chronic phase of the disease starting from day 5 after the first disease peak (grey bar). […] For better clinical translation, the treatment was then switched to nasal treatment with IL-4 and Link4 (FIG. 3B; 2 pooled experiments, n=15-16 per group). Nasally applied treatments can enter the brain through the cribriform plate, where olfactory nerve fibers cross through the bone, resulting in a connection between the roof of the nasal cavity and the brain (C. F. Xiao, F. J. Davis, B. C. Chauhan, K. L. Viola, P. N. Lacor, P. T. Velasco, W. L. Klein, and N. B. Chauhan, Brain transit and ameliorative effects of intranasally delivered anti-amyloid-beta oligomer antibody in 5XFAD mice. J Alzheimers Dis 35, 777-788 (2013)). Again, both IL-4 and Link4 treatments were beneficial.
For active EAE, female 9-10-weeks-old C57BI6 mice were immunized as previously described (M. Paterka, J. O. Voss, J. Werr, E. Reuter, S. Franck, T. Leuenberger, J. Herz, H. Radbruch, T. Bopp, V. Siffrin, and F. Zipp, Dendritic cells tip the balance towards induction of regulatory T cells upon priming in experimental autoimmune encephalomyelitis. J Autoimmun 67, 108-114 (2017)) by subcutaneous injection of 200 μg myelin oligodendrocyte […] 35-55 (MOG35-55) mixed with complete Freund adjuvant (CFA). Following the MOG35-55 immunization 400 ng pertussis toxin (PTX) was administered intraperitoneally at the day of immunizaton and after 24 h. Clinical signs were scored using the following parameters:
Treatment with rIL-4 (1 μg, Peprotech), Ph8 (1 μg, custom synthesized, Schafer N), Link4 (1 μg, custom synthesized, Schafer N) or vehicle (PBS) was performed during the chronic phase of the disease models by lumbar intrathecal injection (R. Lu and A. Schmidtko, Direct intrathecal drug delivery in mice for detecting in vivo effects of cGMP on pain processing. Methods Mol Biol 1020, 215-221 (2013)) or nasal application of IL-4 and Link4 was performed according to published procedures (C. F. Xiao, F. J. Davis, B. C. Chauhan, K. L. Viola, P. N. Lacor, P. T. Velasco, W. L. Klein, and N. B. Chauhan, Brain transit and ameliorative effects of intranasally delivered anti-amyloid-beta oligomer antibody in SXFAD mice. J Alzheimers Dis 35, 777-788 (2013)). Mice were pre-trained to avoid stress and held at a 45 degree angle to apply IL-4 solution (1 μg, Peprotech) to the nostrils using a pipette tip.

[5] = test system: human H9 cell-derived neurons; assay: Growth assay for human H9 cells; format: cell-based; settings: 50 ng/ml, 24 h, vs PBS, FIG. 7B
Text: B: Human Link4 induced neurite outgrowth in human H9 cell-derived neurons. Human neurons were cultivated with commercially available human neural stem cells (H9 cells), which were then differentiated to become neurons. […] The growth assay for human H9 cells described herein can be used to easily detect effects of the derivative peptides of the present invention on human neurons. In particular, this assay can be used to quickly test whether derivative peptides falling within the scope of the present invention are functional.
H9 human neural stem cells (H9 hNSCs) were purchased from Gibco and expanded according to the manufacturer's instructions. For consecutive neural differentiation hNSCs were harvested and reseeded on glass coverslips coated with Matrigel (High Concentration, Growth Factor Reduced; Corning; diluted 1:100 in Knockout DMEM [Gibco]) at a density of 25.000 cells/cm^2. hNSCs were allowed to rest for 48 hours in a basal neuronal medium (Neurobasal, 1X B27, 1x Glutamax, 1x Penicillin/Streptomycin, all from Gibco) before changing to EnStem A Neural Differentiation Medium (SCM017, Millipore) for a further 4 days. Cultures were treated with recombinant human IL-4 (Peprotech) or human Link4 at 50 ng/ml or equal volumes of PBS for 24 h. […]

[6] = test system: hippocampal cell line HT22; assay: CellTiter-blue cell viability assay (ctb), hippocampal cell line; format: cell-based; settings: HT22 cells, increasing concentrations, FIG. 2B
Method: (§3) Toxicity was checked by subjecting mouse embryonic fibroblasts (Mef) and the hippocampal cell line HT22 to a CellTiter-blue cell viability assay (ctb).
(§4) Mouse embryonic fibroblasts (Mef) (Sigma-Aldrich) and hippocampal HT22 (ThermoScientific) cells were cultured according to the manufacturer's protocols. Ctb assays were performed according to the manufacturer's protocols (Promega).

[7] = test system: mouse embryonic fibroblasts (Mef); assay: CellTiter-blue cell viability assay (ctb), fibroblasts; format: cell-based; settings: Mef cells, increasing concentrations, FIG. 2A
Method: as §3, §4

[8] = lumbar intrathecal injection, 1 μg every other day for 14 days

Molecule	differentiation of CD11b+ BMDMs into F80+CD206+ cells [1]	differentiation of CD4+ T cells into Gata3+ cells [3]	clinical score [4, 8]	neurite outgrowth [5]	further results
interleukin-4 [IL-4]	increased the expression of the differentiation markers F80 and CD206	observed	ameliorate clinical symptoms; also recorded: significant improvement in the clinical score; also recorded: significant amelioration of the clinical score		half-life in blood plasma [2]: very short half-life; clinical score ([4]; lumbar intrathecal injection, 1 μg every other day for 14 days, listed as mouse full length IL-4): reducing disease symptoms; clinical score ([4]; nasal application): equally effective; also recorded: significant improvement in the clinical score; also recorded: beneficial
LIRSELIEELSNITGSFITKLLSYTKQ (listed as Mus musculus) [Link13]	did not occur	did not take place			
WNRSEIIKTGSKTIMREKY (listed as Homo sapiens) [human Link4]			equally effective as mouse Link4	increase neurite outgrowth	
CC[C@H](C)[C@H](NC(=O)CNC(=O)[C@@H](NC(=O)[C@@H](NC(=O)[C@@H](N)CCC(=O)O)[C@@H](C)CC)[C@@H](C)CC)C(=O)NCC(=O)N1CCC[C@H]1C(=O)N[C@@H](CCCNC(=N)N)C(=O)N[C@@H](CC(C)C)C(=O)N[C@@H](Cc1ccccc1)C(=O)N[C@@H](CCCNC(=N)N)C(=O)N[C@@H](C)C(=O)N[C@@H](Cc1ccccc1)C(=O)N[C@@H](CCCNC(=N)N)C(=O)N[C@@H](CS)C(=O)N[C@@H](CO)C(=O)NCC(=O)N[C@@H](CO)C(=O)N[C@@H](CCCNC(=N)N)C(=O)N[C@@H](C)C(=O)N[C@@H](CO)C(=O)N[C@@H](CCCCN)C(=O)N[C@H](C(=O)N[C@@H](CC(C)C)C(=O)N[C@@H](CCCNC(=N)N)C(=O)N[C@H](C(=O)N[C@@H](Cc1ccccc1)C(=O)N[C@@H](Cc1ccc(O)cc1)C(=O)N[C@@H](CC(C)C)C(=O)O)[C@@H](C)CC)C(C)C [AvoC] (H-EIIGIGPRLFRAFRCSGSRASKVLRIFYL-OH; N-terminus and C-terminus assumed)					toxic effects on hippocampal neurons (cell viability) [6]: no toxic effects; toxic effects on fibroblasts (cell viability) [7]: no toxic effects
full length IL-4: recombinant human IL-4 (Peprotech) used on human H9 cell-derived neurons (protein, UniProt P05112 25-153, looked up) Interleukin-4: HKCDITLQEIIKTLNSLTEQKTLCTELTVTDIFAASKNTTEKETFCRAATVLRQFYSHHEKDTRCLGATAQQFHRHKQLIRFLKRLDRNLWGLAGLNSCPVKEANQSTLENFLERLKTIMREKYSKCSS				increase neurite outgrowth	
